{
  "source": "paper PMC3425516",
  "about": "(PLoS ONE, 2012)",
  "key": {"HL-60 (TB)": {"tested_on": "HL-60 (TB)", "experiment": "NCI-60 cell lines screening", "type": "cell-based", "settings": "Leukemia panel", "method": "(§1) The NCI-60 cancer cell lines screening was conducted by the NCI’s Developmental Therapeutics Program (DTP; http://www.dtp.nci.nih.gov/branches/btb/ivclsp.html)."}, "NCI-H460": {"tested_on": "NCI-H460", "experiment": "NCI-60 cell lines screening", "type": "cell-based", "settings": "Homo sapiens, NCI-H460, Non-Small Cell Lung Cancer panel", "method": "as §1"}, "HCT116 cells [1]": {"tested_on": "HCT116 cells", "experiment": "Sulforhodamine B cell growth assay", "type": "cell-based", "settings": "Homo sapiens, HCT-116; HCT116, SRB assay, 48 h, mean±S.E.M.; read-out: GI50", "method": "(§2) HCT116, MDAMB231 and NCI-ADR cells were seeded in 96-well plates in medium with 5% fetal bovine serum overnight. Cells were fixed with 10% trichloroacetic representing cell population at the time of drug treatment (T 0). […] Excess Sulforhodamine B was washed away by 1% acetic acid and dye-containing cells were lysed with 10 mmol/L Trizma base. […] By measuring time zero (T 0), control growth (C), and cell growth in the presence of the drug (Tx), the percentage growth was calculated. Percentage growth inhibition was calculated as 100-[(Tx–T 0)/(C-T 0)]×100."}, "MDAMB231 cells": {"tested_on": "MDAMB231 cells", "experiment": "Sulforhodamine B cell growth assay", "type": "cell-based", "settings": "Homo sapiens, MDA-MB-231; MDAMB231, SRB assay, 48 h", "method": "as §2"}, "NCI-ADR cells": {"tested_on": "NCI-ADR cells", "experiment": "Sulforhodamine B cell growth assay", "type": "cell-based", "settings": "Homo sapiens, NCI/ADR-RES, SRB assay, 48 h", "method": "as §2"}, "recombinant human HDAC2": {"target": "recombinant human HDAC2 (Homo sapiens, UniProt Q92769)", "sequence (Q92769 whole entry)": "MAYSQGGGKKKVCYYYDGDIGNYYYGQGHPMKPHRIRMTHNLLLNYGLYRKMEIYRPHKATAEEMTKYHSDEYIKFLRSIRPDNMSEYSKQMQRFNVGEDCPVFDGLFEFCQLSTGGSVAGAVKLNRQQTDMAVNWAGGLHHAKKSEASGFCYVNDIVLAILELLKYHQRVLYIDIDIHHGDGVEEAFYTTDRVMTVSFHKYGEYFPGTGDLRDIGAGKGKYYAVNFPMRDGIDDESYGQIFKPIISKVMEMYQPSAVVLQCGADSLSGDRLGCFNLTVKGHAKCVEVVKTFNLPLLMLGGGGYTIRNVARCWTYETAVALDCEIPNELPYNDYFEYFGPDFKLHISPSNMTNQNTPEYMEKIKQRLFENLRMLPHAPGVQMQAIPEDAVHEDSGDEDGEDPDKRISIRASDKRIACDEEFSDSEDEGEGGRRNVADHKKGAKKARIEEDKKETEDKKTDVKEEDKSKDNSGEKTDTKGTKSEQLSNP", "experiment": "HDAC biochemical assay (fluorogenic)", "settings": "Class I, mean±SE", "description": "(§6) The HDACs in vitro activities of recombinant human HDAC 1, 2, 4, 6 and 8 (BPS Biosciences) were detected by fluorigenic release of 7-amino-4-methylcoumarin from substrate upon deacetylase enzymatic activity."}, "[2]": {"tested_on": "total HDAC activity in HCT116 cells", "experiment": "Total HDACs enzymatic activity assay in treated cells", "type": "cell-based, human", "settings": "HCT116 cells treated 24 h", "method": "Total HDACs enzyme activity was determined using the Boc-Lys(Ac)-AMC fluorometric HDAC activity assay kit (BioVision, Mountain View, CA, USA)."}, "[3]": {"tested_on": "human HCT116 colorectal cancer xenograft", "experiment": "HCT116 xenograft, tumor growth delay to 1,200 mm^3 endpoint", "type": "in vivo, nude mice", "settings": "for No. of CR (complete regression): 8 mice per group; for %TGD (tumor growth delay): [(T-C)/C]×100; for T-C: median TTE treated versus control", "method": "(§3) The human HCT116 colorectal adenocarcinoma cells used for implantation were harvested during log phase growth and resuspended in phosphate-buffered saline at 5×10^7 cells/mL. Each mouse was injected s.c. in the right flank with 1.0×10^7 cells (0.2 mL cell suspension). Tumors were monitored twice weekly and then daily as their volumes approached 1,200 mm^3. Tumor size, in mm^3, was calculated from: where w = width and l = length in mm of the tumor. Tumor volume = (w^2×l)/2.\nThe logrank test was used to determine the statistical significance of the difference between the TTE values of two groups, except any NTR deaths. […] The two-tailed statistical analyses were conducted at P = 0.05. Kaplan-Meier plots show the percentage of animals remaining in the study versus time. The Kaplan-Meier plots use the same data set as the logrank test.\n(§4) Once a tumor was palpable with the size of approximately 55 mm^3, mice were randomized into vehicle control and treatment groups (8 mice per group). Control mice received the vehicle (0.5% carboxymethyl cellulose +0.1% Tween 80). Tumors in all 3 groups were allowed to reach an endpoint volume of 1,200 mm^3."}, "[4]": {"tested_on": "human HCT116 colorectal cancer xenograft", "experiment": "HCT116 xenograft, tumor growth inhibition after 15 days dosing", "type": "in vivo, nude mice", "method": "as §3\nThe tumor growth curves show the group median tumor volume, on a log scale as a function of time.\nas §4"}, "HCT116 cells [5]": {"tested_on": "HCT116 cells", "experiment": "Flow cytometry cell cycle / sub-G1 analysis", "type": "cell-based, human", "method": "After centrifugation, cells were incubated in 0.1 mol/L phosphate-citric acid buffer [0.2 mol/L NaHPO4, 0.1 mol/L citric acid (pH 7.8)] for 20 min at room temperature. Then, the cells were centrifuged and resuspended with 0.5 mL PI solution containing Triton X-100 (0.1%, v/v), RNase (100 µg/mL), and PI (80 µg/mL). DNA content was analyzed with the FACScan and CellQuest software (Becton Dickinson)."}, "HCT116 cells [6]": {"tested_on": "HCT116 cells", "experiment": "Western blot caspase 3 and PARP", "type": "cell-based, human", "settings": "24 h", "method": "(§5) For total lysate, cells were lysed with the 120 µL ice-cold lysis buffer [10 mmol/L Tris-HCl (pH 7.4), 150 mmol/L NaCl, 1 mmol/L EGTA, 1 mmol/L phenylmethylsulfonyl fluoride, 10 µg/mL aprotinin, 10 µg/mL leupeptin, 1 mM sodium orthovandate, 1 mM NaF, and 1% Triton X-100]. Cell lysates were centrifuged at 13,000 rpm for 30 min. […] After 1 h incubation at room temperature in PBS/5% nonfat milk, the membrane was washed with PBS/0.1% and incubated with the indicated antibodies at 4°C overnight. After washings with PBS/0.1% Tween 20, the corresponding secondary antibodies were applied to the membranes for 1 h at room temperature. The membranes were then washed with PBS/0.1% Tween 20 and the detection of signal was done with an enhanced chemiluminescence detection kit (Amersham, Buckinghamshire, UK)."}, "HCT116 cells [7]": {"tested_on": "HCT116 cells", "experiment": "Western blot histone H3 and α-tubulin acetylation", "type": "cell-based, human", "settings": "24 h", "method": "For total lysate, cells were lysed with the 120 µL ice-cold lysis buffer [10 mmol/L Tris-HCl (pH 7.4), 150 mmol/L NaCl, 1 mmol/L EGTA, 1 mmol/L phenylmethylsulfonyl fluoride, 10 µg/mL aprotinin, 10 µg/mL leupeptin, 1 mM sodium orthovandate, 1 mM NaF, and 1% Triton X-100]. Cell lysates were centrifuged at 13,000 rpm for 30 min. For Western blot analysis, the amount of protein (40 µg) was separated by electrophoresis in a 10% or 15% polyacrylamide gel and transferred to a polyvinylidene difluoride (PVDF) membrane. After 1 h incubation at room temperature in PBS/5% nonfat milk, the membrane was washed with PBS/0.1% and incubated with the indicated antibodies at 4°C overnight. After washings with PBS/0.1% Tween 20, the corresponding secondary antibodies were applied to the membranes for 1 h at room temperature. The membranes were then washed with PBS/0.1% Tween 20 and the detection of signal was done with an enhanced chemiluminescence detection kit (Amersham, Buckinghamshire, UK)."}, "HCT116 xenograft tumors": {"tested_on": "HCT116 xenograft tumors", "experiment": "Western blot of HCT116 xenograft tumor tissues", "type": "in vivo, nude mice", "settings": "200 mg/kg oral daily for 7 days", "method": "as §5, §4"}, "recombinant human HDAC4": {"target": "recombinant human HDAC4 (Homo sapiens, UniProt P56524)", "sequence (P56524 whole entry)": "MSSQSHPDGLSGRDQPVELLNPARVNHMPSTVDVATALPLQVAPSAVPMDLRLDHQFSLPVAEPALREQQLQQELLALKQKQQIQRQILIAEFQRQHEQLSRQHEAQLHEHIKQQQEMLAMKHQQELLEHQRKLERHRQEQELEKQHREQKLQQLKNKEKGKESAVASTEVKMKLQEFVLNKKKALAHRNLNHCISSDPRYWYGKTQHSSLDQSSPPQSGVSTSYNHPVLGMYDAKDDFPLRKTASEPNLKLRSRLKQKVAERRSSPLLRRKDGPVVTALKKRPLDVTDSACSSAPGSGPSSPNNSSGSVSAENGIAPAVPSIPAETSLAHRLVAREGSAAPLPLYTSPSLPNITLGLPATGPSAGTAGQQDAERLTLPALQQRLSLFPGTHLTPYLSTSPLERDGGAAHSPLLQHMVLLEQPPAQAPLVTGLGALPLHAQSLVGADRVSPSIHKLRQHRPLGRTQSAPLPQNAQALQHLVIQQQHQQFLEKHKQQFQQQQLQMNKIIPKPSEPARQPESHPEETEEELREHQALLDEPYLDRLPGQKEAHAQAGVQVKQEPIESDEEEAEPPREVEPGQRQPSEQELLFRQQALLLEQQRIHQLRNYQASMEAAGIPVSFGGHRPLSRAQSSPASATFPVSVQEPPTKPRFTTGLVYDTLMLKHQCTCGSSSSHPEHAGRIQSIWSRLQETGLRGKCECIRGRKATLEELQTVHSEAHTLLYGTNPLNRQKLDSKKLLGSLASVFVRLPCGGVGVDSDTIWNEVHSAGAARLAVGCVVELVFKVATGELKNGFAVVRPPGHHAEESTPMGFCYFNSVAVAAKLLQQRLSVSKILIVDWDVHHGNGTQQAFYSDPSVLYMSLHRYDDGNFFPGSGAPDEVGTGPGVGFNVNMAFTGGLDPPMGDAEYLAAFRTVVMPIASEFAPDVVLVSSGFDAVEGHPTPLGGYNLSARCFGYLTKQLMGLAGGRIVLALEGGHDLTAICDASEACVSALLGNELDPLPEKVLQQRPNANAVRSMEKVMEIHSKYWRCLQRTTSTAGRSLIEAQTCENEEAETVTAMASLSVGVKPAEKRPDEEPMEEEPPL", "experiment": "biochemical", "description": "as §6"}},
  "data": [
    {"smiles": "O=C(C=Cc1ccc2c(c1)CCN2S(=O)(=O)c1ccccc1)NO", "note": "[MPT0E028, 3-(1-benzenesulfonyl-2,3-dihydro-1H-indol-5-yl)-N-hydroxy-acrylamide]", "values": [
      {"measurement": "GI50", "setting": "HL-60 (TB); Homo sapiens", "result": 0.439, "unit": "µM"},
      {"measurement": "CC50", "setting": "HL-60 (TB); Homo sapiens, read-out: LC50 (the source's name)", "result": "> 100", "unit": "µM"},
      {"measurement": "TGI", "setting": "HL-60 (TB)", "result": ">100", "unit": "µM"},
      {"measurement": "GI50", "setting": "NCI-H460", "result": 0.144, "unit": "µM"},
      {"measurement": "CC50", "setting": "NCI-H460; read-out: LC50 (the source's name)", "result": 21.6, "unit": "µM"},
      {"measurement": "GI50", "setting": "HCT116 cells [1]", "result": "0.09 ± 0.004", "unit": "µM"},
      {"measurement": "GI50", "setting": "MDAMB231 cells", "result": "0.19 ± 0.04", "unit": "µM"},
      {"measurement": "GI50", "setting": "NCI-ADR cells", "result": "0.14 ± 0.02", "unit": "µM"},
      {"measurement": "IC50", "setting": "recombinant human HDAC2", "result": "106 ± 23", "unit": "nM"},
      {"measurement": "IC50", "setting": "[2]", "result": "4.43 ± 0.5", "unit": "µM"},
      {"measurement": "No. of CR (complete regression)", "setting": "[3]; 50 mg/kg po qd", "result": 0},
      {"measurement": "%TGD (tumor growth delay)", "setting": "[3]; 50 mg/kg po qd", "result": 0, "unit": "%"},
      {"measurement": "T-C", "setting": "[3]; 50 mg/kg po qd", "result": 0, "unit": "days"},
      {"measurement": "Median TTE", "setting": "[3]; 100 mg/kg po qd to endpoint 1200 mm^3", "result": 19.2, "unit": "days"},
      {"measurement": "No. of CR (complete regression)", "setting": "[3]; 100 mg/kg po qd", "result": 1},
      {"measurement": "%TGD (tumor growth delay)", "setting": "[3]; 100 mg/kg po qd", "result": 16, "unit": "%"},
      {"measurement": "T-C", "setting": "[3]; 100 mg/kg po qd", "result": 2.6, "unit": "days"},
      {"measurement": "Median TTE", "setting": "[3]; 200 mg/kg po qd to endpoint 1200 mm^3", "result": 36.9, "unit": "days"},
      {"measurement": "No. of CR (complete regression)", "setting": "[3]; 200 mg/kg po qd", "result": 3},
      {"measurement": "%TGD (tumor growth delay)", "setting": "[3]; 200 mg/kg po qd", "result": 122, "unit": "%"},
      {"measurement": "T-C", "setting": "[3]; 200 mg/kg po qd", "result": 20, "unit": "days"},
      {"measurement": "percent tumor growth inhibition (%TGI)", "setting": "[4]; 100 mg/kg oral once a day for 15 days", "result": 32.0, "unit": "%"},
      {"measurement": "percent tumor growth inhibition (%TGI)", "setting": "[4]; 200 mg/kg oral once a day for 15 days", "result": 73.5, "unit": "%"},
      {"measurement": "sub-G1 population (flow cytometry)", "setting": "HCT116 cells [5]", "result": "increased the number of cells in the sub-G1 phase of the cell cycle"},
      {"measurement": "caspase 3 and PARP activation (western blot)", "setting": "HCT116 cells [6]", "result": "induced caspase 3 and PARP activation in a concentration-dependent manner"},
      {"measurement": "histone H3 acetylation (western blot)", "setting": "HCT116 cells [7]", "result": "induced stronger hyperacetylation of histone H3 than that of SAHA"},
      {"measurement": "expression of caspase 3, PARP, acetyl-histone H3 and acetyl-tubulin in xenograft tumors", "setting": "HCT116 xenograft tumors", "result": "caspase 3, PARP and acetyl-histone H3 were substantially induced"},
      {"measurement": "IC50", "setting": "recombinant human HDAC4", "result": "> 10", "unit": "µM"}
    ]}
  ]
}
